Measured values as given in patent publication US11530244B2, “Cyclic polypeptides for PCSK9 inhibition” (priority 2018, dated 2022).
Starred links: 1 amine or outer side, 2 acyl side, 3 side chain; linkers in the order of their positions; H or OH if unused. Positions of bridges follow the written chain, without caps; N, C: chain ends. Non-standard residues stand in square brackets, D forms with d. Residues, ends and D or L forms follow the SMILES beside them. *: point of attachment. Phe(4-COOH) = N[C@@H](Cc1ccc(C(=O)O)cc1)C(=O)O; Trp(5-F) = N[C@@H](Cc1c[nH]c2ccc(F)cc12)C(=O)O; Trp(6-F) = N[C@@H](Cc1c[nH]c2cc(F)ccc12)C(=O)O; Isophthaloyl = O=C(c1cccc(C(=O)[*:2])c1)[*:1]; Trp(7-aza) = N[C@@H](Cc1c[nH]c2ncccc12)C(=O)O; Acetyl(2-(4-imidazolyl)) = O=C(Cc1c[nH]cn1)*; Phe(4-CH2NH2) = NCc1ccc(C[C@H](N)C(=O)O)cc1; Heptanedioyl = O=C(CCCCCC(=O)[*:2])[*:1]; Pro(cis-4-F) = O=C(O)[C@@H]1C[C@H](F)CN1; mXylylene = c1cc(C[*:1])cc(C[*:2])c1; AEF = NCCOc1ccc(C[C@H](N)C(=O)O)cc1; aThr = C[C@H](O)[C@H](N)C(=O)O; αMeP = C[C@@]1(C(=O)O)CCCN1; dOrn = NCCC[C@@H](N)C(=O)O; Isovaleryl = CC(C)CC(=O)*; Orn = NCCC[C@H](N)C(=O)O; Dab = NCC[C@H](N)C(=O)O; Dap = NC[C@H](N)C(=O)O; X2 = O=C(C[*:2])[*:1]; Ahx = NCCCCCC(=O)O; X62 = O=C(C(F)F)*; Mpa = O=C(O)CCS

Target: PCSK9 (Homo sapiens (Human), UniProt Q8NBP7)
Assay: PCSK9 Alexa FRET Standard assay (displacement of AlexaFluor647 tagged cyclic peptide Reagent A)
Assay type: binding
Conditions: IC50, PCSK9 Alexa FRET Standard assay, 0.5 nM PCSK9, 20 nM AF cyclic peptide Reagent A
Method: A solution containing 1 nM biotinylated PCSK9+2.5 nM Lance Streptavidin Europium (Strep-Eu) was made in 50 mM HEPES pH 7.4, 0.15 M NaCl, 5 mM CaCl2), 0.01% BSA, and 0.01% Surfactant P20. A separate solution containing 40 nM of the AlexaFluor tagged cyclic peptide was made in the same buffer system. An Echo was used to transfer 0.750 ul of compound to an assay plate followed by the addition of 15 ul of PCSK9+Stept-Eu and 15 ul of AF peptide. The final assay volume was 30.750 ul containing 0.5 nM PCSK9, 1.25 nM Strep-Eu, and 20 nM AF cyclic peptide. The reaction was incubated at room temperature for at least two hours prior to fluorescence measurements using an Envision Multilabel Reader. IC50 values were determined by fitting data to a sigmoidal dose-response curve using nonlinear regression. Ki was then calculated from the IC50 and the KD of AF cyclic peptide. Counts (B-counts) of the europium-labeled PCSK9 were followed to observe if compounds were […]. A fall off of the B-counts likely indicated a false positive of inhibition. Data from this procedure was reported as “A=‘numerical value’ (nanomolar)”

Sequence of PCSK9 (Q8NBP7 153-692): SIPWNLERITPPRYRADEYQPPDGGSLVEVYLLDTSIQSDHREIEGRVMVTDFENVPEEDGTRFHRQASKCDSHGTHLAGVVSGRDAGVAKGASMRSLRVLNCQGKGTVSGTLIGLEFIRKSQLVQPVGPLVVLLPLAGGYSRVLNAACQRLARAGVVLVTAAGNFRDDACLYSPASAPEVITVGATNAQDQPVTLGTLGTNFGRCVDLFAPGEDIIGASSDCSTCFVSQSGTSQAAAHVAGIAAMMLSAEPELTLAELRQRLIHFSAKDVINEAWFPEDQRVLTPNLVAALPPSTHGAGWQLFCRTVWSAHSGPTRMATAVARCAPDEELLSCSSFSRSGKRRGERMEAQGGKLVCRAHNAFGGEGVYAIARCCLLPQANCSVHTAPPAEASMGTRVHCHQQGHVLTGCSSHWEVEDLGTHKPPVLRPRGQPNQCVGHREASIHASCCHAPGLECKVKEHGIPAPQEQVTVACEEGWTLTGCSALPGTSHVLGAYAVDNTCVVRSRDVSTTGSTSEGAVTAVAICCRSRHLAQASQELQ

SMILES | IC50 [µM]
COc1ccc(C[C@@H]2NC(=O)[C@H]([C@@H](C)O)NC(=O)[C@@H]3C[C@H](F)CN3C(=O)[C@H](Cc3c[nH]c4ccc(F)cc34)NC(=O)[C@H](Cc3c[nH]c4ccc(F)cc34)NC(=O)[C@@H](C)NC(=O)[C@H](CCCCN)NC(=O)[C@@H](NC(=O)C(F)F)CC(=O)NCCOc3ccc(cc3)C[C@@H](C(N)=O)NC(=O)[C@]3(C)CCCN3C2=O)cc1 [Compound 113] (X62-DK[dA][Trp(5-F)][Trp(5-F)][Pro(cis-4-F)]TY(Me)[αMeP][AEF]-NH2; lactam 1-10) | 21 to 50

Same assay, conditions: PCSK9 Alexa FRET Standard assay, 0.5 nM PCSK9, 20 nM AF cyclic peptide Reagent A

SMILES | IC50 [µM]
COc1ccc(C[C@@H]2NC(=O)[C@H]([C@@H](C)O)NC(=O)[C@@H]3C[C@H](F)CN3C(=O)[C@H](Cc3c[nH]c4ccc(F)cc34)NC(=O)[C@H](Cc3c[nH]c4ccc(F)cc34)NC(=O)[C@@H](C)NC(=O)[C@H](CCCCN)NC(=O)[C@@H](NC(=O)Cc3cnc[nH]3)CC(=O)NCCOc3ccc(cc3)C[C@@H](C(N)=O)NC(=O)[C@]3(C)CCCN3C2=O)cc1 [Compound 106] ({Acetyl(2-(4-imidazolyl))}-DK[dA][Trp(5-F)][Trp(5-F)][Pro(cis-4-F)]TY(Me)[αMeP][AEF]-NH2; lactam 1-10) | 1 to 12.1

Same assay, conditions: PCSK9 Alexa FRET Standard assay, 0.5 nM PCSK9, 20 nM AF cyclic peptide Reagent A; read-out: IC50

SMILES | IC50 [µM]
COc1ccc(C[C@@H]2NC(=O)[C@H]([C@@H](C)O)NC(=O)[C@@H]3C[C@H](F)CN3C(=O)[C@H](Cc3c[nH]c4ccc(F)cc34)NC(=O)[C@H](Cc3c[nH]c4ccc(F)cc34)NC(=O)[C@@H](C)NC(=O)[C@H](CCCCN)NC(=O)[C@@H](NC(=O)CC(C)C)CC(=O)NCCOc3ccc(cc3)C[C@@H](C(N)=O)NC(=O)[C@]3(C)CCCN3C2=O)cc1 [Compound 107] (Isovaleryl-DK[dA][Trp(5-F)][Trp(5-F)][Pro(cis-4-F)]TY(Me)[αMeP][AEF]-NH2; lactam 1-10) | 0.1 to 1
C[C@@]12CCCN1C(=O)[C@H](Cc1ccc(O)cc1)NC(=O)CN1C(=O)[C@H](CCc3ccccc31)NC(=O)[C@H](Cc1c[nH]c3ccc(F)cc13)NC(=O)[C@H](Cc1c[nH]c3ccc(F)cc13)NC(=O)CNC(=O)[C@H](CCCCN)NC(=O)CCSCc1cccc(c1)CSC[C@@H](C(N)=O)NC2=O [Compound 110] | 21 to 50
COc1ccc(C[C@@H]2NC(=O)[C@H]([C@@H](C)O)NC(=O)[C@@H]3C[C@H](F)CN3C(=O)[C@H](Cc3c[nH]c4ccc(F)cc34)NC(=O)[C@H](Cc3c[nH]c4ccc(F)cc34)NC(=O)[C@@H](C)NC(=O)CCCCCC(=O)NCc3ccc(cc3)C[C@@H](C(N)=O)NC(=O)[C@]3(C)CCCN3C2=O)cc1 [Compound 125] ([dA][Trp(5-F)][Trp(5-F)][Pro(cis-4-F)]TY(Me)[αMeP][Phe(4-CH2NH2)]-NH2; linker N-8 via Heptanedioyl) | 21 to 50
CC(C)C[C@H]1C(=O)N[C@@H](Cc2ccc(O)cc2)C(=O)N2CCC[C@@]2(C)C(=O)N[C@H](C(N)=O)CSCc2cccc(c2)CSCCC(=O)N[C@@H](CCCCN)C(=O)NCC(=O)N[C@@H](Cc2c[nH]c3ccc(F)cc23)C(=O)N[C@@H](Cc2c[nH]c3ccc(F)cc23)C(=O)N2CCC[C@@]23CCN1C3=O [Compound 127] | 0.1 to 1
C[C@@]12CCCN1C(=O)[C@H](Cc1ccc(O)cc1)NC(=O)CN1C(=O)[C@H](N=C(C3CCCCC3)c3ccccc31)NC(=O)[C@H](Cc1c[nH]c3ccc(F)cc13)NC(=O)[C@H](Cc1c[nH]c3ccc(F)cc13)NC(=O)CNC(=O)[C@H](CCCCN)NC(=O)CCSCc1cccc(c1)CSC[C@@H](C(N)=O)NC2=O [Compound 128] | 21 to 50
COc1ccc(C[C@@H]2NC(=O)[C@H]([C@H](C)O)NC(=O)[C@@H]3C[C@H](F)CN3C(=O)[C@H](Cc3c[nH]c4ccc(F)cc34)NC(=O)[C@H](Cc3c[nH]c4ccc(F)cc34)NC(=O)[C@@H](C)NC(=O)[C@H](C)NC(=O)[C@@H](NC(C)=O)CCNC(=O)c3cccc(c3)C(=O)NCCC[C@@H](C(N)=O)NC(=O)[C@]3(C)CCCN3C2=O)cc1 [Compound 134] (Ac-[Dab]A[dA][Trp(5-F)][Trp(5-F)][Pro(cis-4-F)][aThr]Y(Me)[αMeP][Orn]-NH2; linker 1-10 via Isophthaloyl) | 21 to 50
NCCCC[C@@H]1NC(=O)CCSCc2cccc(c2)CSC[C@@H](C(N)=O)NC(=O)[C@@H]2CCCN2C(=O)[C@H](Cc2c[nH]c3ncccc23)NC(=O)[C@H](Cc2c[nH]cn2)NC(=O)[C@H](CC(=O)O)NC(=O)[C@H](Cc2c[nH]c3ccc(F)cc23)NC(=O)[C@H](Cc2c[nH]c3ccc(F)cc23)NC(=O)CNC1=O [Compound 235] ([Mpa]KG[Trp(5-F)][Trp(5-F)]DH[Trp(7-aza)]PC-NH2; linker 1-10 via mXylylene) | 21 to 50
CC(=O)N[C@H]1CCc2cn(nn2)-c2ccc(cc2)C[C@@H](C(N)=O)NC(=O)[C@]2(C)CCCN2C(=O)[C@H](Cc2ccc(O)cc2)NC(=O)[C@H](Cc2cnc[nH]2)NC(=O)[C@H](CC(=O)O)NC(=O)[C@H](Cc2c[nH]c3ccc(F)cc23)NC(=O)[C@H](Cc2c[nH]c3ccc(F)cc23)NC(=O)CNC(=O)[C@H](C)NC1=O [Compound 331] | 21 to 50
CC(=O)N[C@H]1CCCc2cn(nn2)-c2ccc(cc2)C[C@@H](C(N)=O)NC(=O)[C@]2(C)CCCN2C(=O)[C@H](Cc2ccc(O)cc2)NC(=O)[C@H](Cc2cnc[nH]2)NC(=O)[C@H](CC(=O)O)NC(=O)[C@H](Cc2c[nH]c3ccc(F)cc23)NC(=O)[C@H](Cc2c[nH]c3ccc(F)cc23)NC(=O)CNC(=O)[C@H](C)NC1=O [Compound 337] | 21 to 50
COc1ccc(C[C@@H]2NC(=O)[C@H](Cc3cnc[nH]3)NC(=O)[C@H](CC(=O)O)NC(=O)[C@H](Cc3c[nH]c4ccc(F)cc34)NC(=O)[C@H](Cc3c[nH]c4ccc(F)cc34)NC(=O)[C@@H](C)NC(=O)[C@H](NC(C)=O)CCCCNC(=O)c3ccc(cc3)C[C@@H](C(N)=O)NC(=O)[C@]3(C)CCCN3C2=O)cc1 [Compound 341] (Ac-[dK][dA][Trp(5-F)][Trp(5-F)]DHY(Me)[αMeP][Phe(4-COOH)]-NH2; lactam 1-9) | 21 to 50
COc1ccc(C[C@@H]2NC(=O)[C@H](Cc3cnc[nH]3)NC(=O)[C@H](CC(=O)O)NC(=O)[C@H](Cc3c[nH]c4ccc(F)cc34)NC(=O)[C@H](Cc3c[nH]c4ccc(F)cc34)NC(=O)[C@@H](C)NC(=O)[C@H](CCCCN)NC(=O)[C@@H](NC(C)=O)CC(=O)NCc3ccc(cc3)C[C@@H](C(N)=O)NC(=O)[C@]3(C)CCCN3C2=O)cc1 [Compound 348] (Ac-DK[dA][Trp(5-F)][Trp(5-F)]DHY(Me)[αMeP][Phe(4-CH2NH2)]-NH2; lactam 1-10) | 21 to 50
COc1ccc(C[C@@H]2NC(=O)[C@H](Cc3cnc[nH]3)NC(=O)[C@H](CC(=O)O)NC(=O)[C@H](Cc3c[nH]c4cc(F)ccc34)NC(=O)[C@H](Cc3c[nH]c4ccc(F)cc34)NC(=O)[C@@H](C)NC(=O)CCCCCNC(=O)c3ccc(cc3)C[C@@H](C(N)=O)NC(=O)[C@]3(C)CCCN3C2=O)cc1 [Compound 350] ([Ahx][dA][Trp(5-F)][Trp(6-F)]DHY(Me)[αMeP][Phe(4-COOH)]-NH2; lactam N-9) | 21 to 50
CC(=O)N[C@H]1CNC(=O)COc2ccc(cc2)C[C@@H](C(N)=O)NC(=O)[C@]2(C)CCCN2C(=O)[C@H](Cc2ccc(O)cc2)NC(=O)[C@H](Cc2cnc[nH]2)NC(=O)[C@H](CC(=O)O)NC(=O)[C@H](Cc2c[nH]c3ccc(F)cc23)NC(=O)[C@H](Cc2c[nH]c3ccc(F)cc23)NC(=O)CNC(=O)[C@H](C)NC1=O [Compound 351] (Ac-[Dap]AG[Trp(5-F)][Trp(5-F)]DHY[αMeP]Y-NH2; linker 1-10 via X2) | 21 to 50
CC(=O)N[C@H]1CCNC(=O)COc2ccc(cc2)C[C@@H](C(N)=O)NC(=O)[C@]2(C)CCCN2C(=O)[C@H](Cc2ccc(O)cc2)NC(=O)[C@H](Cc2cnc[nH]2)NC(=O)[C@H](CC(=O)O)NC(=O)[C@H](Cc2c[nH]c3ccc(F)cc23)NC(=O)[C@H](Cc2c[nH]c3ccc(F)cc23)NC(=O)CNC(=O)[C@H](C)NC1=O [Compound 352] (Ac-[Dab]AG[Trp(5-F)][Trp(5-F)]DHY[αMeP]Y-NH2; linker 1-10 via X2) | 21 to 50
C[C@@]12CCCN1C(=O)[C@H](Cc1ccc(O)cc1)NC(=O)[C@H](Cc1cnc[nH]1)NC(=O)[C@H](CC(=O)O)NC(=O)[C@H](Cc1c[nH]c3ccc(F)cc13)NC(=O)[C@H](Cc1c[nH]c3ccc(F)cc13)NC(=O)CNC(=O)[C@@H](CCCN)NC(=O)CCSCc1cccc(c1)CSC[C@@H](C(N)=O)NC2=O [Compound 356] ([Mpa][dOrn]G[Trp(5-F)][Trp(5-F)]DHY[αMeP]C-NH2; linker 1-10 via mXylylene) | 21 to 50
COc1ccc(C[C@@H]2NC(=O)[C@H](Cc3cnc[nH]3)NC(=O)[C@H](CC(=O)O)NC(=O)[C@H](Cc3c[nH]c4cc(F)ccc34)NC(=O)[C@H](Cc3c[nH]c4ccc(F)cc34)NC(=O)[C@@H](C)NC(=O)[C@H](CCCCN)NC(=O)CCc3cn(nn3)-c3ccc(cc3)C[C@@H](C(N)=O)NC(=O)[C@]3(C)CCCN3C2=O)cc1 [Compound 368] | 21 to 50
CO[C@H](C)[C@@H]1NC(=O)CCSCc2cccc(c2)CSC[C@@H](C(N)=O)NC(=O)[C@]2(C)CCCN2C(=O)[C@H](Cc2ccc(O)cc2)NC(=O)[C@H](Cc2cnc[nH]2)NC(=O)[C@H](CC(=O)O)NC(=O)[C@H](Cc2c[nH]c3ccc(F)cc23)NC(=O)[C@H](Cc2c[nH]c3ccc(F)cc23)NC(=O)CNC1=O [Compound 375] ([Mpa]T(Me)G[Trp(5-F)][Trp(5-F)]DHY[αMeP]C-NH2; linker 1-10 via mXylylene) | 21 to 50
